Experiment [1] has as its system acrolein that is generated from a cell. Kind of experiment: Sensitivity comparison with conventional detection reagent: staining of normal and cancer cells. The settings on record: for acrolein concentration level that can be detected: acrolein generated from a cell, suggested from FIG. 3 staining; for identification of localization and morphology of a cancer cell: at a low reagent concentration (0.25-1.5 μM, 5 minutes). Format: cell-based, human. The method, then:
Respective detection sensitivities of a detection reagent (TAMRA-PhN3) represented by Formula below and the compound 7 (TAMRA-di-iPr-PhN3) prepared in Example 1 were compared. Cells illustrated in FIG. 3 (for description of cell strains, see also Reference Example 1) were each immersed in an aqueous solution, containing the detection reagent at a concentration of 0.25 μM, 0.75 μM, or 1.5 μM, for 5 minutes so as to be stained.

In another experiment the test system is acrolein. Kind of experiment: Selective detection of acrolein: fluorescence staining of 11 normal and cancer cell lines. Format: cell-based, human. The settings on record: 2.5-22.5 μM, 30 minutes at room temperature, with a higher concentration; FIG. 1. The method, then: The following 11 cell lines were seeded in 96 wells (4×10^4 cells/well) and left to stand for 24 hours before treatment so that the cell lines were adhered to the wells.
Normal cell: normal human diploid fibroblast (TIG3), normal human umbilical vein endothelial cell (HUVEC), normal human mammary gland cell (MCF10A)
Cancer cell: SKBR3 (human breast cancer cell), MDA-MB-231 (human breast cancer cell), BxPC3 (human pancreatic cancer cell), HT29 (human colonic cancer cell), MCF7 (human breast cancer cell), A549 (human lung cancer cell), HeLaS3 (human cervical cancer cell), PC3 (human prostatic cancer cell)
The cells were treated by adding, to media, 100 μL of TAMRA-PhN3 solutions (2.5 μM, 7.5 μM, 12.5 μM, 17.5 μM, 22.5 μM) described in Non-patent Literature 1 and Example 2. Then, the cells were incubated at room temperature for 30 minutes. The cells were fixed by paraformaldehyde, and fluorescence was recorded with use of Spectra Max M2e (Molecular Devices, LLC.).
In FIG. 1, the vertical axis represents a relative fluorescence intensity (arbitrary unit), and the horizontal axis represents a result of staining (fluorescence) of each normal or cancer cell.

For experiment [2], the system named is invasive ductal carcinoma-positive, ductal carcinoma in situ-positive and cancer-negative tissue. Kind of experiment: Staining of cancer tissue in a living tissue state. Format: cell-based. Conditions: 5, 10, 20 μM, 5 minutes at room temperature; FIG. 2. The method, then:
An invasive ductal carcinoma-positive tissue (IDC-positive), a ductal carcinoma in situ-positive tissue (DCIS-positive), and a cancer-negative tissue (Cancer-negative) were each immersed in a TAMRA-PhN3 solution (5 μM, 10 μM, 20 μM). These tissues were incubated at room temperature for 5 minutes. The tissues were each stained in a living tissue state. […] Note that cell nuclei are stained with DAPI.
In FIG. 2, “Eyesight” indicates a photograph of each tissue that has been stained, and “Microscopy (×1)”, “Microscopy (×200)”, and “Microscopy (×400)” each indicate results of observations carried out with use of microscopes having respective magnifications of 1 time, 200 times, and 400 times.

Consider two compounds from US20210179853A1, “DRUG THAT REACTS WITH ACROLEIN, USE THEREOF AND NOVEL COMPOUND” (RIKEN, priority 2018, published 2021).

`CN(C)c1ccc2c(-c3ccc(C(=O)NCc4ccc(N=[N+]=[N-])cc4)cc3C(=O)[O-])c3ccc(=[N+](C)C)cc-3oc2c1` [TAMRA-PhN3]: in experiment [1], the “acrolein concentration level that can be detected” value is “nM-level”; the “identification of localization and morphology of a cancer cell” value is given as “cannot be identified”. The “reaction product with acrolein (relative fluorescence intensity)” value in the experiment with acrolein is listed as “increase in reaction product (fluorescence intensity)”. Besides, the “observation of localization and morphology of a cancer cell in a living tissue” value in experiment [2] was “possible to observe localization and morphology of a cancer cell in detail in a living tissue”.

In the case of `CC(C)c1cc(CNC(=O)c2ccc(-c3c4ccc(=[N+](C)C)cc-4oc4cc(N(C)C)ccc34)c(C(=O)[O-])c2)cc(C(C)C)c1N=[N+]=[N-]` [compound 7, 5-carboxymethylrhodamine-diisopropylphenylazide], in experiment [1], the “acrolein concentration level that can be detected” value is on record as “pM level”; the “identification of localization and morphology of a cancer cell” value was “possible to identify localization and morphology of a cancer cell”. The “detection sensitivity relative to TAMRA-PhN3” value in experiment [1] (cells immersed in aqueous solution of reagent at 0.25, 0.75 or 1.5 μM for 5 minutes, FIG. 3) is listed as “not less than 100 times”.
